The record followed here is PubChem BioAssay AID248 (DTP/NCI, 2004).

The test system of this experiment is L1210 leukemia ip in BDF1 mice, survival T/C. In words: NCI In Vivo Anticancer Drug Screen. Data for tumor model L1210 Leukemia (intraperitoneal) in B6D2F1 (BDF1) mice. The following applies: endpoint: mean survival time, higher = longer survival. Summed up:
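Antitumor effect is assessed in tumor-bearing animals. Survival in the compound arm is compared with a vehicle-dosed control arm and expressed as their quotient.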

Setting [1] is: dose: 100.0 mg/kg/injection, schedule: Q04DX003 (ip), vehicle: Klucel (hydroxypropylcellulose) (HPC).
Setting [2] is: dose: 200.0 mg/kg/injection, schedule: Q04DX003 (ip), vehicle: Klucel (hydroxypropylcellulose) (HPC).
The mark [3] stands for this setting: dose: 400.0 mg/kg/injection, schedule: Q04DX003 (ip), vehicle: Klucel (hydroxypropylcellulose) (HPC).
Setting [4] is: dose: 100.0 mg/kg/injection, schedule: Q01DX009 (ip), vehicle: Klucel (hydroxypropylcellulose) (HPC).
Where [5] appears, read: dose: 100.0 mg/kg/injection, schedule: Q04DX002 (ip), vehicle: Klucel (hydroxypropylcellulose) (HPC).
Where [6] appears, read: dose: 200.0 mg/kg/injection, schedule: Q01DX009 (ip), vehicle: Klucel (hydroxypropylcellulose) (HPC).
The mark [7] stands for this setting: dose: 200.0 mg/kg/injection, schedule: Q04DX002 (ip), vehicle: Klucel (hydroxypropylcellulose) (HPC).
[8] abbreviates: dose: 400.0 mg/kg/injection, schedule: Q01DX009 (ip), vehicle: Klucel (hydroxypropylcellulose) (HPC).
Setting [9] is: dose: 400.0 mg/kg/injection, schedule: Q04DX002 (ip), vehicle: Klucel (hydroxypropylcellulose) (HPC).
Setting [10] is: dose: 100.0 mg/kg/injection, schedule: Q01DX001 (ip), vehicle: carboxymethylcellulose (CMC).
Where [11] appears, read: dose: 200.0 mg/kg/injection, schedule: Q01DX001 (ip), vehicle: carboxymethylcellulose (CMC).
[12] abbreviates: dose: 400.0 mg/kg/injection, schedule: Q01DX001 (ip), vehicle: carboxymethylcellulose (CMC).
[13] abbreviates: dose: 100.0 mg/kg/injection, schedule: Q01DX001 (ip), vehicle: saline.
The mark [14] stands for this setting: dose: 200.0 mg/kg/injection, schedule: Q01DX001 (ip), vehicle: saline.

The structures appear in SMILES notation. Several values for one entry are separate records, joined by “and”; a condition that tells them apart may be missing. Equal entries are not always repeated. Toxic doses and inconclusive results are not listed.

Take `Nc1ccc(Cc2ccc(N)c(Cl)c2)cc1Cl`: the T/C reads like this: under setting [1], 100 % of control; under setting [2], 91 % of control; under setting [3], 100 % of control.

Regarding `COc1ccc([N+](=O)[O-])cc1NC(=O)NCc1cccnc1`, the T/C by setting is: (dose: 100.0 mg/kg/injection, schedule: Q01DX001 (ip), vehicle: Klucel (hydroxypropylcellulose) (HPC)) 91 % of control; under setting [4], 93 % of control and 91 % of control; under setting [5], 87 % of control and 92 % of control; under setting [1], 103 % of control; (dose: 200.0 mg/kg/injection, schedule: Q01DX001 (ip), vehicle: Klucel (hydroxypropylcellulose) (HPC)) 93 % of control; under setting [6], 93 % of control and 98 % of control. The T/C under setting [7] is 97 % of control and 87 % of control; the T/C under setting [2] is 100 % of control; the T/C (dose: 400.0 mg/kg/injection, schedule: Q01DX001 (ip), vehicle: Klucel (hydroxypropylcellulose) (HPC)) is 90 % of control; the T/C under setting [8] is 93 % of control and 95 % of control; the T/C under setting [9] was 97 % of control and 92 % of control; the T/C under setting [3] was 101 % of control.

As for `O=C(/C(=C\c1ccccc1)CBr)c1ccc(Br)cc1`, the T/C was 100 % of control (dose: 3.12 mg/kg/injection, schedule: Q01DX009 (ip), vehicle: saline); 100 % of control (dose: 6.25 mg/kg/injection, schedule: Q01DX009 (ip), vehicle: saline); 94 % of control and 89 % of control (dose: 12.5 mg/kg/injection, schedule: Q01DX009 (ip), vehicle: saline); 96 % of control (dose: 12.5 mg/kg/injection, schedule: Q04DX003 (ip), vehicle: saline with Tween-80); 93 % of control (dose: 25.0 mg/kg/injection, schedule: Q04DX003 (ip), vehicle: saline with Tween-80); 94 % of control (dose: 50.0 mg/kg/injection, schedule: Q04DX003 (ip), vehicle: saline with Tween-80).

On to `COc1cc(N(CCCl)CCCl)c(OC)cc1C=Nc1ccc(-c2nc(Cc3ccccc3)sc2C)cc1`, for which the T/C was 117 % of control (dose: 4.0 mg/kg/injection, schedule: Q01DX009 (ip), vehicle: other); 123 % of control (dose: 6.0 mg/kg/injection, schedule: Q01DX009 (ip), vehicle: other); 120 % of control (dose: 9.0 mg/kg/injection, schedule: Q01DX009 (ip), vehicle: other); 105 % of control (dose: 12.5 mg/kg/injection, schedule: Q01DX001 (ip), vehicle: carboxymethylcellulose (CMC)); 105 % of control (dose: 25.0 mg/kg/injection, schedule: Q01DX001 (ip), vehicle: carboxymethylcellulose (CMC)); 110 % of control (dose: 44.0 mg/kg/injection, schedule: Q01DX001 (ip), vehicle: carboxymethylcellulose (CMC)). Moreover, the T/C (dose: 44.0 mg/kg/injection, schedule: Q01DX009 (ip), vehicle: other) is 160 % of control; the T/C (dose: 66.0 mg/kg/injection, schedule: Q01DX009 (ip), vehicle: carboxymethylcellulose (CMC)) is 102 % of control; the T/C (dose: 100.0 mg/kg/injection, schedule: Q01DX009 (ip), vehicle: carboxymethylcellulose (CMC)) was 88 % of control; the T/C (dose: 150.0 mg/kg/injection, schedule: Q01DX001 (ip), vehicle: carboxymethylcellulose (CMC)) was 153 % of control.

`Nc1ccc(S(=O)(=O)CI)cc1`: the T/C by setting is: under setting [10], 100 % of control; under setting [11], 92 % of control.

Turning to `CN(Cc1ccccc1)C(=O)Nc1ccc(F)c([N+](=O)[O-])c1`, the T/C reads like this: under setting [4], 113 % of control; under setting [6], 98 % of control; under setting [8], 101 % of control.

Take `CC(O)(c1ccccc1)c1ccccc1S(=O)(=O)Nc1ccccc1` (centres undefined): the T/C is 101 % of control under setting [10], 93 % of control under setting [11] and 95 % of control under setting [12].

For the molecule `COc1ccc(S(=O)(=O)N=[N+]=[N-])cc1`, the T/C under setting [13] is 103 % of control and the T/C under setting [14] is 95 % of control.

Consider `CSc1cccc(/C=C\c2ccc([N+](=O)[O-])cc2)c1`, for which the T/C was 101 % of control under setting [4]; 94 % of control under setting [1]; 100 % of control under setting [6]; 94 % of control under setting [2]; 88 % of control under setting [8]; 96 % of control under setting [3].

For `CN(CCCl)Cc1ccccc1`, the T/C is, setting by setting: (dose: 8.2 mg/kg/injection, schedule: Q01DX Z (ip), vehicle: methylcellulose (MC)) 107 % of control; (dose: 18.8 mg/kg/injection, schedule: Q01DX Z (ip), vehicle: methylcellulose (MC)) 109 % of control and 112 % of control; (dose: 25.0 mg/kg/injection, schedule: Q01DX009 (ip), vehicle: Klucel (hydroxypropylcellulose) (HPC)) 101 % of control; (dose: 25.0 mg/kg/injection, schedule: Q01DX009 (ip), vehicle: saline) 107 % of control; (dose: 28.0 mg/kg/injection, schedule: Q01DX Z (ip), vehicle: methylcellulose (MC)) 114 % of control and 121 % of control; (dose: 50.0 mg/kg/injection, schedule: Q01DX009 (ip), vehicle: Klucel (hydroxypropylcellulose) (HPC)) 112 % of control. In addition, the T/C is 103 % of control (dose: 50.0 mg/kg/injection, schedule: Q01DX009 (ip), vehicle: saline); 101 % of control (dose: 50.0 mg/kg/injection, schedule: Q04DX003 (ip), vehicle: Klucel (hydroxypropylcellulose) (HPC)); 87 % of control (dose: 63.0 mg/kg/injection, schedule: Q01DX Z (ip), vehicle: methylcellulose (MC)); 97 % of control (dose: 100.0 mg/kg/injection, schedule: Q01DX009 (ip), vehicle: saline); 108 % of control under setting [1].

In the case of `O=C1C2C3CCC(O3)C2C(=O)N1CC#CCCl` (centres undefined), the T/C (dose: 6.25 mg/kg/injection, schedule: Q04DX002 (ip), vehicle: saline with Tween-80) is 100 % of control and the T/C (dose: 12.5 mg/kg/injection, schedule: Q04DX002 (ip), vehicle: saline with Tween-80) is 106 % of control.

For `CN(c1ccccc1)c1cc(N)nc(N)n1`, the T/C (dose: 6.0 mg/kg/injection, schedule: Q01DX Z (ip), vehicle: methylcellulose (MC)) was 92 % of control.

As to `Nc1nc(=O)n(C2CCCO2)cc1Br` (centres undefined), the T/C under setting [13] is 100 % of control; the T/C under setting [14] was 103 % of control; the T/C (dose: 400.0 mg/kg/injection, schedule: Q01DX001 (ip), vehicle: saline) was 87 % of control.

For the molecule `CC1(C)C2CCC1(C)C(N1C(c3ccccc3)C1c1ccccc1)C2` (centres undefined), the T/C under setting [4] is 90 % of control, the T/C under setting [6] is 88 % of control and the T/C under setting [8] is 90 % of control.

As for `Cc1nc(N)c2c(n1)C(C)N(C(=O)c1ccccc1)C2` (centres undefined), the T/C was 103 % of control under setting [10], 100 % of control under setting [11] and 97 % of control under setting [12].

Consider `CCOc1ccc(P2(=S)SP(=S)(c3ccc(OCC)cc3)S2)cc1` (centres undefined), for which the T/C is 97 % of control (dose: 100.0 mg/kg/injection, schedule: Q01DX009 (ip), vehicle: saline with Tween-80); 94 % of control under setting [5]; 91 % of control (dose: 200.0 mg/kg/injection, schedule: Q01DX009 (ip), vehicle: saline with Tween-80); 88 % of control under setting [7]; 102 % of control (dose: 400.0 mg/kg/injection, schedule: Q01DX009 (ip), vehicle: saline with Tween-80); 102 % of control under setting [9].

With `CCCCCCCCCCCCCCCCC(CCCCCCCCCCCCCCCC)C1CCCCC1`, the T/C is 94 % of control (dose: 100.0 mg/kg/injection, schedule: Q01DX001 (ip), vehicle: saline with Tween-80); 94 % of control (dose: 200.0 mg/kg/injection, schedule: Q01DX001 (ip), vehicle: saline with Tween-80); 90 % of control (dose: 400.0 mg/kg/injection, schedule: Q01DX001 (ip), vehicle: saline with Tween-80).
